From publication PMC12118597 (Science Advances, 2025)
Like-named read-outs stand apart in the source and are kept apart here.

Target: SARS-CoV-2 NSP3 macrodomain (Mac1) (Severe acute respiratory syndrome coronavirus 2, UniProt P0DTD1)
Assay type: binding
Conditions: for Total number of conformations: ligand conformations modeled in the crystal structure; for 2*(1-BDC) (%): occupancy estimate from PanDDA
[1] = PanDDA background density correction factor
[2] = TRUE = crystal structure with ligand obtained
[3] = crystal soak 10 mM, P43 crystal form
[4] = crystal soak 10 mM, DMSO background map
[5] = refined crystallographic occupancy
[6] = site of ligand in X-ray crystal structure
[7] = ligand-bound crystal structure obtained (TRUE)
[8] = site occupied in X-ray crystal structure
[9] = crystal soak concentration 20 mM, DMSO background map
[10] = crystal soak concentration 20 mM, P43 crystals
[11] = soak concentration 10 mM, DMSO background map
[12] = soak concentration 10 mM, P43 crystals

| Structure (SMILES) | Occupancy difference (refined_occupancy - 2*(1-BDC)) | 1-BDC [1] | X-ray crystal structure [2] | PanDDA run, overall: Hit [3] | PanDDA run, overall: Modeled [3] | PanDDA run, DMSO background map: 1-BDC [4] | PanDDA run, DMSO background map: Hit [4] | Total number of conformations | 2*(1-BDC) (%) | Refined ligand occupancy (%) [5] | Binding site [6] | also measured |
| --- | --- | --- | --- | --- | --- | --- | --- | --- | --- | --- | --- | --- |
| CCC(Nc1ncnc2[nH]ccc12)C(C)(C)O (centres unmarked) [AVI-3667] | 0 | 0.14 | TRUE | TRUE | TRUE | 0.14 | TRUE | 1 | 28% | 28% | Adenosine | – |
| OCC(Cc1ccoc1)Nc1ncnc2[nH]ccc12 (centres unmarked) [AVI-3705] | 0 | 0.21 | TRUE | TRUE | – | 0.21 | TRUE | 1 | 42% | 42% | Adenosine | – |
| CN(C)C[C@@]1(O)CCCN(c2ncnc3[nH]ccc23)C1 [AVI-614] | – | – | – | TRUE | – | 0.17 | TRUE | – | – | – | – | PanDDA run, overall: Modeling comment (crystal soak 10 mM): Weak density, not modeled |
| OCC1CC2(CCC2)CN1c1ncnc2[nH]ccc12 (centres unmarked) [AVI-3728] | 0 | 0.24 | – | TRUE | – | 0.24 | TRUE | 2 | 48% | 48% | – | PanDDA run, overall: Modeling comment (crystal soak 10 mM): Distal site, weak density, not modeled; X-ray crystal structure [7]: TRUE; Binding site [8]: Adenosine |
| O=C(O)C(F)(F)F.O[C@H]1CCC[C@@H]1Nc1ncnc2[nH]ccc12 [AVI-3639] | 0 | 0.11 | TRUE | TRUE | TRUE | 0.11 | TRUE | 1 | 22% | 22% | Adenosine | – |
| OC[C@@H]1C[C@H](F)CN1c1ncnc2[nH]ccc12 [AVI-609] | 0 | 0.17 | – | TRUE | – | 0.17 | TRUE | 1 | 34% | 34% | – | X-ray crystal structure [7]: TRUE; Binding site [8]: Adenosine |
| O=C(O)C(F)(F)F.OCC(Cc1cccc(F)c1)Nc1ncnc2[nH]ccc12 (centres unmarked) [AVI-3706] | – | – | – | – | – | – | – | – | – | – | – | PanDDA run, overall: Modeling comment (crystal soak 10 mM): TFA only |
| O=C(O)C(F)(F)F.OCC(CC1CCOCC1)Nc1ncnc2[nH]ccc12 (centres unmarked) [AVI-3676] | – | – | – | – | – | – | – | – | – | – | – | PanDDA run, overall: Modeling comment [3]: TFA only |
| OCC(Nc1ncnc2[nH]ccc12)C1CCc2ccccc21 (centres unmarked) [AVI-3693] | 16 | 0.22 | TRUE | TRUE | TRUE | 0.22 | TRUE | 2 | 44% | 60% | Adenosine | – |
| Cc1ccc(CC(CO)Nc2ncnc3[nH]ccc23)cc1C (centres unmarked) [AVI-3684] | 20 | 0.15 | TRUE | TRUE | TRUE | 0.15 | TRUE | 2 | 30% | 50% | Adenosine | – |
| OCC(COCc1ccccc1)Nc1ncnc2[nH]ccc12 (centres unmarked) [AVI-3709] | 0 | 0.19 | TRUE | TRUE | – | 0.19 | TRUE | 2 | 38% | 38% | Adenosine | – |
| CNc1ccc(NS(=O)(=O)c2cc3cccc(C)c3s2)cn1 [AVI-345] | – | – | – | – | – | – | – | – | 52% | – | – | 1-BDC (PanDDA background density correction, 1-BDC): 0.26; X-ray crystal structure (TRUE = ligand-bound crystal structure obtained (PDB code given)): TRUE; Hit (PanDDA run, DMSO background map) [9]: TRUE; Modeled (PanDDA run, DMSO background map) [9]: TRUE; 1-BDC (PanDDA run, DMSO background map) (crystal soak concentration 20 mM, DMSO background map, event 1): 0.26; Hit (PanDDA run, overall) [10]: TRUE; Modeled (PanDDA run, overall) [10]: TRUE; Refined ligand occupancy (%) (crystallographic refinement): 52%; Binding site (site of Mac1 occupied in the X-ray crystal structure (Adenosine or Distal)): Adenosine; PanDDA run, DMSO background map: 1-BDC [11]: 0.17; PanDDA run, DMSO background map: Hit [11]: TRUE; PanDDA run, overall: Hit [12]: TRUE; PanDDA run, overall: Modeling comment [12]: Duplicate, not modeled |
| OCC(Cc1ccc(I)cc1)Nc1ncnc2[nH]ccc12 (centres unmarked) [AVI-3686] | 0 | 0.2 | TRUE | TRUE | TRUE | 0.2 | TRUE | 2 | 40% | 40% | Adenosine | – |
